Experimental data: patent US10364263B2, “Cyclic phosphates and cyclic phosphoramidates for the treatment of neurologic disorders” (Retrophin, Inc., priority 2015, dated 2019)

Test system: PANK2 silenced human neuroblastoma IMR32 cells (PANK2−/−)
Experiment: Coenzyme A assay in PANK2 silenced cells (LC-MS quantification of free CoA)
Assay type: cell-based
Details: compound added twice (24 h + 24 h), relative to 0.1% DMSO controls
Description: A human neuroblastoma IMR32 cell line (ATCC) with stably PANK2 silencing was obtained by lentiviral-delivered small hairpin RNA and cultured in MEM (Invitrogen) supplemented with 10% fetal bovine serum, 2 mM glutamine, 1% penicillin-streptomycin, 1 mM sodium pyruvate, 1 mM non essential amino acids and 1.5 g/l sodium bicarbonate.
For lentiviral shRNA expression, Human Emryonic Kidney HEK-293T cells (ATCC) were transfected with the appropriate pGFP-Lenti-shRNA constructs and packaging plasmids according to manufacturer's protocol (Origene Technologies, Inc.). Four different gene-specific shRNA expression vectors designed against multiple splice variants of PANK2 (Gene ID 80025) were used for transfection. A non-silencing shRNA construct (scrambled shRNA) and an empty vector expressing GFP alone were used as negative controls. The GFP tag subcloned into the lentiviral vectors was used to monitor the transfection efficiency.
IMR32 cells were plated on 150 cm dishes 48 h before transduction with lentiviral particles.
Three days after transduction medium was removed and replaced with fresh medium containing […] puromycin. Medium was replaced every 48 h. Levels of PANK2 expression on selected clones was assessed by Western Blot analysis.
To quantify CoA, PANK2^−/− IMR32 cells were plated on 12-well culture plates (Corning) at a density of 0.2×10^6 cells per well. After 72 h, compounds were freshly dissolved in DMSO and added to the culture medium to yield a final solvent concentration of 0.1% (v/v). Controls with medium containing 0.1% DMSO without test compounds were also included in each plate. Compound treated cells were incubated for 24 h at 37° C. Treatment was repeated after 24 h with newly dissolved compound and cells were further incubated at 37° C. for additional 24 h. Before LC-MS analysis of CoA levels, cells were harvested, counted, and collected in a 15 ml falcon tube and centrifuged at 200×g for 5 min at 4° C. Supernatant was removed and cell pellet was washed in 10 ml of ice-cold PBS. To further confirm that the numbers of cells in each sample were equivalent, an equal fraction of pellet was collected from each sample and subjected to protein determination analysis. After centrifugation and supernatant removal, the cell pellet was rapidly frozen in Liquid Nitrogen and stored at −80° C. until analysis.
Intracellular CoA levels were calculated considering an intracellular volume of 1 million cells=2 μl.
The 1×10^6 cellular pellet was extracted with 120 μl of aqueous 20% TFA. This solution was stirred for 2 min, sonicated in ultrasonic bath for 2 min, then stirred again for 1 min, and centrifuged for 15 min at 14000 g and at 4° C.
100 μL samples of supernatant were dried under N2 at 20° C. in the dark.
Samples were re-dissolved in 100 μl of 10 mM NH4^+ AcO^− buffer pH 5.1+IS (Dextrorphan 50 ng/ml), stirred for 2 min, sonicated in ultrasonic bath for 1 min, then stirred again for 1 min, and injected into LC-MS.
LC-MS/MS was performed using an Agilent HPLC (1100 Series, USA). The LC system was interfaced with an API-4000 Q-Trap triple quadrupole mass spectrometer (AB Sciex, Toronto, Canada) equipped with a TurbolonSpray ionization source operating in positive ion mode. Analyst™ software version 1.6 (AB Sciex, Toronto, Canada) was used for data acquisition and processing. CoA was separated using a Luna C18 column (2.0×50 mm; 5 μm particle size), column at 25° C. and flow rate of 0.2 ml/min. Injection volume was 15 μl. The mobile phases consisted of water containing 10 mM ammonium acetate pH 7 (mobile phase A) and MeCN-2-propanol 9:1 (mobile phase B). Elution was performed using a gradient starting at 2% B, holding at 2% B until 0.1 min, increasing to 98% B at 3.2 min, holding at 98% B until 4.5 min, returning to 2% B at 4.6 min and holding at 2% B until 7.5 min. Precursor ions and MRM transitions used were: CoA m/z 768.1→261.6 and 768.1→136.1. […]

SMILES	PANK2−/− CoA (Fold Increase): fold increase in Coenzyme A (CoA) levels relative to controls
COC(=O)CCNC(=O)[C@@H]1O[P@@](=O)(OCOC(=O)c2scnc2C)OCC1(C)C (single isomer, unassigned) [2-149]	24.48 Fold Increase
COC(=O)CCNC(=O)[C@@H]1O[P@](=O)(OCOC(=O)c2scnc2C)OCC1(C)C (single isomer, unassigned) [2-150]	43.4 Fold Increase
COC(=O)CCNC(=O)[C@@H]1O[P@@](=O)(OCOC(=O)c2cnco2)OCC1(C)C (single isomer, unassigned) [2-151]	17.56 Fold Increase
COC(=O)CCNC(=O)[C@@H]1O[P@@](=O)(Oc2ccc(C[C@H](N)C(=O)OC)cc2)OCC1(C)C (single isomer, unassigned) [2-162]	9.73 Fold Increase
COC(=O)CCNC(=O)[C@@H]1O[P@@](=O)(Oc2ccc(C[C@H](NC(=O)OC(C)(C)C)C(=O)OC)cc2)OCC1(C)C (single isomer, unassigned) [2-204]	5.75 Fold Increase
COC(=O)CCNC(=O)[C@@H]1O[P@](=O)(Oc2ccc([N+](=O)[O-])cc2)OCC1(C)C (single isomer, unassigned) [Compound No. 2-120]	21.05 Fold Increase
COC(=O)CCNC(=O)[C@@H]1O[P@](=O)(Oc2ccc(S(F)(F)(F)(F)F)cc2)OCC1(C)C (single isomer, unassigned) [Compound No. 2-125]	34.02 Fold Increase
CC(C)(C)C(=O)OCO[P@@]1(=O)OCC(C)(C)[C@H](C(=O)NCCC(=O)OCCC#N)O1 (single isomer, unassigned) [Compound No. 77]	93.86 Fold Increase
CCOC(=O)CCNC(=O)[C@@H]1OP(=O)(OCOC(=O)C(C)(C)C)OCC1(C)C (single isomer, unassigned) [Compound No. 107]	85.06 Fold Increase
COC(=O)[C@H](C)N[P@@]1(=O)OCC(C)(C)[C@H](C(=O)NCCC(=O)OCc2ccncc2)O1 (single isomer, unassigned) [compound 18, methyl ((2R,4R)-5,5-dimethyl-2-oxido-4-((3-oxo-3-(pyridin-4-ylmethoxy)propyl)carbamoyl)-1,3,2-dioxaphosphinan-2-yl)-L-alaninate or methyl ((2S,4R)-5,5-dimethyl-2-oxido-4-((3-oxo-3-(pyridin-4-ylmethoxy)propyl)carbamoyl)-1,3,2-dioxaphosphinan-2-yl)-L-alaninate]	2.06 Fold Increase
COC(=O)CCNC(=O)[C@@H]1OP(=O)(N2CCCCC2)OCC1(C)C (stereo in doubt) [compound 133, methyl 3-((2R,4R)-5,5-dimethyl-2-oxido-2-(piperidin-1-yl)-1,3,2-dioxaphosphinane-4-carboxamido)propanoate]	1.45 Fold Increase
COC(=O)CCNC(=O)[C@@H]1O[P@@](=O)(N[C@@H](C)C(=O)OC)OCC1(C)C [1-52, methyl 3-((2R,4R)-2-(((S)-1-methoxy-1-oxopropan-2-yl)amino)-5,5-dimethyl-2-oxido-3,3,2-dioxaphosphinane-4-carboxamido)propanoate]	2.09 Fold Increase
COC(=O)CCNC(=O)[C@@H]1O[P@](=O)(N[C@@H](C)C(=O)OC)OCC1(C)C [1-53, methyl 3-((2S,4R)-2-(((S)-1-methoxy-1-oxopropan-2-yl)amino)-5,5-dimethyl-2-oxido-1,3,2-dioxaphosphinane-4-carboxamido)propanoate]	2.37 Fold Increase
CO[13C](=O)[13CH2][13CH2][15NH]C(=O)[C@@H]1OP(=O)(Oc2ccccc2)OCC1(C)C (stereo partly drawn) [2-109, methyl 3-((4R)-5,5-dimethyl-2-oxido-2-phenoxy-1,3,2-dioxaphosphinane-4-carboxamido-15N)propanoate-1,2,3-13C3]	2.04 Fold Increase
CC(C)OC(=O)CCNC(=O)[C@@H]1OP(=O)(O)OCC1(C)C [2-110, isopropyl 3-((4R)-2-hydroxy-5,5-dimethyl-2-oxido-1,3,2-dioxaphosphinane-4-carboxamido)propanoate]	2.17 Fold Increase
COC(=O)CCNC(=O)[C@@H]1OP(=O)(OCCN2CCOCC2=O)OCC1(C)C (stereo partly drawn) [2-114, methyl 3-((4R)-5,5-dimethyl-2-oxido-2-(2-(3-oxomorpholino)ethoxy)-1,3,2-dioxaphosphinane-4-carboxamido)propanoate]	1.87 Fold Increase
COC(=O)CCNC(=O)[C@@H]1O[P@@](=O)(OCCNC(C)=O)OCC1(C)C [2-115, methyl 3-((2R,4R)-2-(2-acetamidoethoxy)-5,5-dimethyl-2-oxido-1,3,2-dioxaphosphinane-4-carboxamido)propanoate]	1.6 Fold Increase
COC(=O)CCNC(=O)[C@@H]1O[P@@](=O)(Oc2ccc(C#N)cc2)OCC1(C)C [2-116, methyl 3-((2S,4R)-2-(1-cyanophenoxy)-5,5-dimethyl-2-oxido-1,3,2-dioxaphosphinane-4-carboxamido)propanoate]	0.95 Fold Increase
COC(=O)CCNC(=O)[C@@H]1O[P@@](=O)(Oc2ccccc2C(=O)OC)OCC1(C)C [2-117, methyl 2-(((2S,4R)-4-((3-methoxy-3-oxopropyl)carbamoyl)-5,5-dimethyl-2-oxido-1,3,2-dioxaphosphinan-2-yl)oxy)benzoate]	1.11 Fold Increase
COC(=O)CCNC(=O)[C@@H]1O[P@@](=O)(Oc2ccc([N+](=O)[O-])cc2)OCC1(C)C [2-121, methyl 3-((2S,4R)-5,5-dimethyl-2-(4-nitrophenoxy)-2-oxido-1,3,2-dioxaphosphinane-4-carboxamido)propanoate]	1.59 Fold Increase
COC(=O)CCNC(=O)[C@@H]1OP(=O)(Oc2ccc(C(F)(F)F)nc2)OCC1(C)C (stereo partly drawn) [2-122, methyl 3-((4R)-5,5-dimethyl-2-oxido-2-((6-(trifluoromethyl)pyridin-3-yl)oxy)-1,3,2-dioxaphosphinane-4-carboxamido)propanoate]	1.21 Fold Increase
COC(=O)CCNC(=O)[C@@H]1O[P@](=O)(OCC(F)(F)F)OCC1(C)C [2-123, methyl 3-((2S,4R)-5,5-dimethyl-2-oxido-2-(2,2,2-trifluoroethoxy)-1,3,2-dioxaphosphinane-4-carboxamido)propanoate]	1.46 Fold Increase
COC(=O)CCNC(=O)[C@@H]1O[P@@](=O)(Oc2ccc(S(F)(F)(F)(F)F)cc2)OCC1(C)C [2-124, methyl 3-((2S,4R)-5,5-dimethyl-2-oxido-2-(4-(pentafluoro-16-sulfanyl)phenoxy)-1,3,2-dioxaphosphinane-4-carboxamido)propanoate]	1.12 Fold Increase
